{"source": "patent US10350184B2", "about": "“Derivatives used in the treatment of muscle atrophy” (METABRAIN RESEARCH, priority 2015, dated 2019)", "key": {"muscle cells": {"system": "muscle cells", "assay": "Protein synthesis (via phosphorylation of S6K1) in muscle cells", "assay_type": "cell-based", "details": "for Protein Synthesis (percentage increase in 56K phosphorylation in muscle cells): significant when greater than 120%", "protocol": "The cells are counted and seeded at a density of […] cells per well in a 24-well plate in a DMEM medium containing glucose at 4.5 g/L and supplemented with fetal calf serum (10%) and antibiotics (penicillin and streptomycin). […] The cells are then placed in a medium without glucose or leucine (Krebs medium) for 1 hour at 37° C., and then incubated for 2 hours and 30 minutes in the presence of the test products or reference, (IGF-1, 100 ng/ml) in serum-free DMEM medium containing radiolabeled leucine 2.5 μCi/mL. At the end of the incubation, the supernatants are removed and the cells are lysed in a 0.1N NaOH solution for 30 min. The radioactivity is measured in the cell fraction and the total protein amount is determined by Lowry assay. Each condition is evaluated at a minimum of n=6; IGF-1, 100 ng/mL is our control to stimulate protein synthesis. The results are expressed in cpm/μg of proteins after 2.5 hours of incubation or as a percentage with respect to the control condition.\nFor the effects on protein synthesis, the results are expressed as a percentage increase in 56K phosphorylation in muscle cells. This percentage is considered significant when it is greater than 120%, the observed average value of IGF-1 at the concentration of 100 ng/mL in this test, considered as reference."}, "[1]": {"system": "myostatin gene expression", "assay": "Measurement of myostatin expression in C2Cl2 (qPCR)", "assay_type": "cell-based, Mouse", "details": "for inhibition of the expression of myostatin: C2Cl2 cells, Table 1, 0.5 μm; for percentage of myostatin gene expression in cells in contact with the molecules related to the expression in the control cells: concentration of the compound 0.5 μm, 6 h, active if less than or close to 70%", "protocol": "C2Cl2 myoblastic cells (ATCC CRL-1772) are seeded in 24-well plates at the density of 30,000 cells per well and cultured in DMEM (Dulbecco's Modified Eagle Medium) medium containing glucose at 4.5 g/L and supplemented with fetal calf serum (10%) and antibiotics (penicillin and streptomycin). […] The cells are then placed in a glucose-depleted medium (DMEM containing 1 g/L of glucose) and devoid of serum in the presence of the test molecules or references (IGF-1 at a concentration of 100 ng/ml) for 6 h. At the end of the experiment, messenger RNAs (mRNAs) are extracted using standard phenol and chloroform methodology. Briefly, the cells are lysed in a solution of trizol (Sigma T9424) containing a strong acid and phenol. The mRNAs are separated from the proteins by the addition of chloroform followed by centrifugation. They are then precipitated in isopropanol and then suspended at the concentration of 1 μg/μL in ultra-pure water free of RNA and DNA. 1 μg of mRNA is then converted by retro-transcription into complementary DNA by the AMV enzyme in the presence a primer and a mixture of nucleotides according to the protocol given by the supplier (Applied Biosystems 4368814). […] QPCRs are performed on a 79001-IT Fast Real-Time PCR detection system (Applied Biosystems). The programming conditions are standard and consist of 1 cycle at 95° C. for 15 min, followed by 40 cycles at 95° C. for 15 sec and 60° C. for 1 min and finalized with a melt curve step at 60° C. and 95° C. The analyzed samples all contain 100 ng of cDNA, a qPCR buffer including the enzyme, the mixture of oligonucleotides and the intercalating SYBR green, and the pair of specific primers of the gene being studied, strategically chosen between two exon sequences and at a final concentration of 200 nM. Fluorescent probes bind to the double-stranded. DNA and fluoresce only once attached to the DNA. A fluorescence threshold is established by the program of the machine. When the amount of DNA allows the fluorescent probe to exceed this threshold, a PCR cycle number called “Ct” is obtained for “cycle threshold” or cycle threshold. It is this value that is the basis of the calculations to quantify the DNA in a relative fashion. A ratio R is set between the amount of the starting DNA in a sample and that of a control, which has not been treated (i.e., R=2^−(Ct Sample−Ct Control)) and this measurement will be compared to that of a household gene known to be unmodulated by the treatment (or R=2^−NRCt).\nThe primers used are recorded in the following table: […]\nFor the effects on myostatin expression, the results are expressed as a percentage of myostatin gene expression in cells in contact with the molecules related to the expression in the control cells. The product is supposed to be active if this ratio is less than or close to 70%, the average, value of IGF-1 found at the concentration of 100 ng/mL in this test, considered as reference."}, "C2Cl2 cells": {"system": "C2Cl2 cells", "assay": "Evaluation of muscle fiber diameter", "assay_type": "cell-based", "details": "vs vehicle control", "protocol": "The C2Cl2 myoblastic cells (ATCC CRL-1772) were seeded into glycerol-treated 8-well plates at a density of 10,000 cells per well and cultured in a DMEM medium containing glucose at 4.5 g/L and supplemented with fetal calf serum (10%) and antibiotics (penicillin and streptomycin).\nThe cells are then placed in a glucose-depleted medium (DMEM containing 1 g/L of glucose) and devoid of serum in the presence of the test molecules or references (IGF-1 at the concentration of 10 ng/mL or dexamethasone 10 nM) for 3 days. At the end of the culture, the cells are rinsed and fixed with 2.5% glutaraldehyde/0.1% Triton solution for 1 hour at room temperature. The cell layer is covered with DAPI (fluorescent labeling of the cell nucleus). After storage in the dark for 16 hours in the cold, the slides are observed under a fluorescence microscope (Carl Zeiss, AxioVert 200) and the images are analyzed using the Axiovision 4.1 software to measure the diameter of the fibers.\nC2Cl2 cells are differentiated and treated with compound 1 for the last three days of differentiation."}}, "data": [{"molecule": "CCON=C(CCC(=O)O)c1ccc(Cl)c(Cl)c1", "note": "[Compound 1, 4-(3,4-dichlorophenyl)-4-ethoxyimino-butanoic acid]", "values": [{"measurement": "Protein Synthesis (percentage increase in 56K phosphorylation in muscle cells)", "setting": "muscle cells; 0.5 μm", "result": 134, "unit": "%"}, {"measurement": "Protein Synthesis (percentage increase in 56K phosphorylation in muscle cells)", "setting": "muscle cells; 5 μm", "result": 142, "unit": "%"}, {"measurement": "Protein Synthesis (percentage increase in 56K phosphorylation in muscle cells)", "setting": "muscle cells; 50 μm", "result": 151, "unit": "%"}, {"measurement": "protein synthesis in muscle cells", "setting": "muscle cells; concentration of 0.5 μM", "result": "significantly increases"}, {"measurement": "inhibition of the expression of myostatin", "setting": "[1]", "result": "significantly inhibit"}, {"measurement": "percentage of myostatin gene expression in cells in contact with the molecules related to the expression in the control cells", "setting": "[1]", "result": 71, "unit": "%"}, {"measurement": "diameter of the myotubes (muscle fiber diameter, FIG. 1)", "setting": "C2Cl2 cells; compound 1 at 10 μM, last three days of differentiation", "result": "significantly increased"}]}, {"molecule": "CCON=C(CCC(=O)OC(C)C)c1ccc(Cl)c(Cl)c1", "note": "[Compound 3, Isopropyl acid 4-(3,4-dichlorophenyl)-4-ethoxyimino-butanoate]", "values": [{"measurement": "inhibition of the expression of myostatin", "setting": "[1]", "result": "significantly inhibit"}, {"measurement": "percentage of myostatin gene expression in cells in contact with the molecules related to the expression in the control cells", "setting": "[1]", "result": 41, "unit": "%"}]}, {"molecule": "IGF-1: reference used to inhibit myostatin expression, stimulate protein synthesis and increase myotube diameter [reference compound]", "values": [{"measurement": "Protein synthesis, observed average value of reference", "setting": "muscle cells; IGF-1 at 100 ng/mL", "result": 120, "unit": "%"}, {"measurement": "percentage of myostatin gene expression related to control cells, average value of reference", "setting": "[1]; IGF-1 at 100 ng/mL", "result": 70, "unit": "%"}, {"measurement": "diameter of myotubes (muscle fiber diameter, FIG. 1)", "setting": "C2Cl2 cells; IGF1 at 10 ng/ml, 3 days", "result": "significantly increases"}]}]}
